From patent publication US20250179078A1, “INHIBITORS OF NLRP3” (PTC THERAPEUTICS, INC., priority 2022, published 2025) come the findings set out here.

The structures appear in SMILES notation. pIC50: −log10 of the molar value.

T1 sequence (Q96P20 whole entry): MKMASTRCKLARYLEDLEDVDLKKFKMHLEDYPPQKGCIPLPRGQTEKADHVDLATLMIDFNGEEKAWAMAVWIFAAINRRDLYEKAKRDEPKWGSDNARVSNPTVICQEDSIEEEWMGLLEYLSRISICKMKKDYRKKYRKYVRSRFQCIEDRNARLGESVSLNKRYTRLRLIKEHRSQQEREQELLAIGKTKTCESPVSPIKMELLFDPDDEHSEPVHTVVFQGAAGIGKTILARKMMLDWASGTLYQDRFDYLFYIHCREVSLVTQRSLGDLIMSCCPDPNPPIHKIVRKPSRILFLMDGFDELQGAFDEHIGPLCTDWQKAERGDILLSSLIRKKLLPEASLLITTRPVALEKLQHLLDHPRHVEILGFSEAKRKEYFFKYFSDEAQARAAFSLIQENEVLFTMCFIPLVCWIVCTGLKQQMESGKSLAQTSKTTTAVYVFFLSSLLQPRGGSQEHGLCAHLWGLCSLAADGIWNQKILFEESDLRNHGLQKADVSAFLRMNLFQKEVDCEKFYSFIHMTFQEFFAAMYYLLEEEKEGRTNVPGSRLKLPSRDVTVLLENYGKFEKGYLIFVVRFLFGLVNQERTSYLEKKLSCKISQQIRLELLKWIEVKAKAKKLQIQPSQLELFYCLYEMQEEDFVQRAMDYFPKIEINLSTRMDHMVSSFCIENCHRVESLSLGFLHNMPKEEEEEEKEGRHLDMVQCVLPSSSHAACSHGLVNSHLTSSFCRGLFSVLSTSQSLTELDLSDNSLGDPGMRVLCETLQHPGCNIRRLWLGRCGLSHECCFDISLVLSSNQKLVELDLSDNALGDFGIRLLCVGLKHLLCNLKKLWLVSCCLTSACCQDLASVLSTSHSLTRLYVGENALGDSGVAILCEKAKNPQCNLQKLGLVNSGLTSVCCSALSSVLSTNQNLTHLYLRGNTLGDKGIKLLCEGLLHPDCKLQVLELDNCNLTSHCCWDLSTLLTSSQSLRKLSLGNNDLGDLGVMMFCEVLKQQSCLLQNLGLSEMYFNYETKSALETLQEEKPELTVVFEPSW

This assay addresses T1, NLRP3 (Homo sapiens, UniProt Q96P20).
T1 construct: host or cells: THP-1 cells differentiated with PMA
Briefly: IL-1β Secretion Assay (NLRP3-dependent IL1β secretion in THP1 cells). The conditions noted are these: PMA-differentiated THP-1 cells; compounds incubated 20 h; 2.5 μM Nigericin 3 h; HTRF IL-1β readout; read-out: IC50 IL-1β Inhibition. In kind it is cell-based. On the procedure: Monocytic THP-1 cells (ATCC: TIB-202) were maintained in growth media consisting of RPMI 1640 medium (ThermoFisher, Cat #11875-085), 10% FBS (ThermoFisher) and 0.05 mM β-mercaptoethanol (ThermoFisher, Cat #21985-023), according to the provider's instructions. The cell concentration was adjusted to 7.5×10^5 cells/mL, and plated in complete growth media with a final concentration of 100 ng/mL phorbol 12-myristate 13-acetate (PMA, Sigma #P8139). Cells were seeded at 100 µL/well into a 96-well cell culture plate (ThermoFisher Cat #165305) and allowed to differentiate for 24 h in a cell culture incubator at 37° C. with 5% CO2. Cells were washed 1× with 100 ul PBS and replaced with fresh RPMI+5% FBS. Compounds were serial diluted in DMSO with 3 fold dilution for a total of 7 concentrations. Diluted compounds were added to the cells at a ratio of 1:200 and incubated for 20 h. The NLRP3 inflammasome was activated with the addition of 2.5 μM Nigericin (Sigma: Cat #SML1779-1 ml), for 3 h. After incubation, 15 μL of conditioned media was removed and assayed for levels of IL-1β using the HTRF IL-1β assay kit (Cisbio: Cat #62HIL1BPEH) as per the manufacturer's instructions.
Compounds, once produced and prepared according to the present invention, can be assessed in variety of assays to characterize their activities. For example, NLRP3-dependent IL1β secretion was evaluated in THP1 cells. IC50 values of IL1β inhibition were calculated from the plot of percentage of inhibition versus the inhibitor concentration by a logistics fit. TABLE I depict examples of compounds according to generic Formula I. Data which is <1 nM is listed as *****; data 1-10 nM is listed as ****; data 10-100 nM is listed as ***, data 100-300 nM is listed as **, data ≥300 nM is listed as *.
(In TR-FRET formats the signal depends on donor and acceptor labels being close together.)
As for `Cc1cc2c(-c3ccc(C(F)(F)F)cc3OC(F)(F)F)nnc(N[C@@H]3CCCC[C@H]3O)n2n1` [Compound 382, (1R,2R)-2-({2-methyl-4-[2-(trifluoromethoxy)-4-(trifluoromethyl)phenyl]pyrazolo[1,5-d][1,2,4]triazin-7-yl}amino)cyclohexan-1-ol], the pIC50 is 7.00 to 8.00.

For `Cc1ccc(-c2nnc(N[C@@H]3CCCN(C)C3)n3nc(C)cc23)c(OC(F)F)c1` [Compound 361, 4-[2-(difluoromethoxy)-4-methylphenyl]-2-methyl-N-[(3R)-1-methylpiperidin-3-yl]pyrazolo[1,5-d][1,2,4]triazin-7-amine], the pIC50 was 8.00 to 9.00.

On to `O[C@H]1CCC[C@@H](Nc2nnc(-c3ccc(C(F)(F)F)cc3OC(F)(F)F)c3cccn23)C1` [Compound 122, (1S,3R)-3-({1-[2-(trifluoromethoxy)-4-(trifluoromethyl)phenyl]pyrrolo[1,2-d][1,2,4]triazin-4-yl}amino)cyclohexan-1-ol], for which the pIC50 is 8.00 to 9.00.

Consider `COc1ccc(-c2nnc(N[C@H]3C[C@@](C)(O)C3)n3ccc(F)c23)c(Cl)c1` [Compound 84, (1s,3s)-3-{[1-(2-chloro-4-methoxyphenyl)-8-fluoropyrrolo[1,2-d][1,2,4]triazin-4-yl]amino}-1-methylcyclobutan-1-ol], for which the pIC50 was 7.00 to 8.00.

As to `O[C@@H]1COCC[C@H]1Nc1nnc(-c2ccc(OC(F)F)cc2OC(F)(F)F)c2cncn12` [Compound 331, (3S,4R)-4-({1-[4-(difluoromethoxy)-2-(trifluoromethoxy)phenyl]imidazo[1,5-d][1,2,4]triazin-4-yl}amino)oxan-3-ol], the pIC50 was 7.00 to 8.00.

With `COc1ccc(-c2nnc(Nc3cc[nH]n3)n3cncc23)c(C(F)(F)F)c1` [Compound 228, 1-[4-methoxy-2-(trifluoromethyl)phenyl]-N-(1H-pyrazol-3-yl)imidazo[1,5-d][1,2,4]triazin-4-amine], the pIC50 was 7.00 to 8.00.

Consider `O=C1NCCC1Nc1nnc(-c2ccc(C(F)(F)F)cc2C(F)(F)F)c2cncn12` (centres unmarked) [Compound 294, 3-({1-[2,4-bis(trifluoromethyl)phenyl]imidazo[1,5-d][1,2,4]triazin-4-yl}amino)pyrrolidin-2-one], for which the pIC50 is 8.00 to 9.00.

As for `COc1ccc(-c2nnc(N[C@@H]3CCOC[C@H]3O)n3cc(C)cc23)c(OC(F)(F)F)c1` [Compound 165, (3S,4R)-4-({1-[4-methoxy-2-(trifluoromethoxy)phenyl]-7-methylpyrrolo[1,2-d][1,2,4]triazin-4-yl}amino)oxan-3-ol], the pIC50 is 8.00 to 9.00.

Consider `COc1ccc(-c2nnc(N[C@H]3C[C@@](C)(O)C3)n3cc(C)cc23)c(OC(F)(F)F)c1` [Compound 108, (1s,3s)-3-({1-[4-methoxy-2-(trifluoromethoxy)phenyl]-7-methylpyrrolo[1,2-d][1,2,4]triazin-4-yl}amino)-1-methylcyclobutan-1-ol], for which the pIC50 was 8.00 to 9.00.

Regarding `Cc1cc2c(-c3ccc(C4CC4)cc3C(F)F)nnc(N[C@@H]3CCCN(C)C3)n2n1` [Compound 363, 4-[4-cyclopropyl-2-(difluoromethyl)phenyl]-2-methyl-N-[(3R)-1-methylpiperidin-3-yl]pyrazolo[1,5-d][1,2,4]triazin-7-amine], the pIC50 is 8.00 to 9.00.

As for `CCN1CCC[C@@H](Nc2nnc(-c3ccc(OC)cc3C(F)(F)F)c3c(F)ccn23)C1` [Compound 17, N-[(3R)-1-ethylpiperidin-3-yl]-8-fluoro-1-[4-methoxy-2-(trifluoromethyl)phenyl]pyrrolo[1,2-d][1,2,4]triazin-4-amine], the pIC50 was 8.00 to 9.00.

Consider `COc1ccc(-c2nnc(N[C@@H]3CCCN(CCO)C3)n3ccc(F)c23)c(OC(F)(F)F)c1` [Compound 51, 2-[(3R)-3-({8-fluoro-1-[4-methoxy-2-(trifluoromethoxy)phenyl]pyrrolo[1,2-d][1,2,4]triazin-4-yl}amino)piperidin-1-yl]ethan-1-ol], for which the negative logarithm of the IC50 (pIC50) is 8.00 to 9.00.

With `COc1ccc(-c2nnc(NCc3nccn3C)n3cccc23)c(OC(F)(F)F)c1` [Compound 69, 1-[4-methoxy-2-(trifluoromethoxy)phenyl]-N-[(1-methyl-1H-imidazol-2-yl)methyl]pyrrolo[1,2-d][1,2,4]triazin-4-amine], the pIC50 was 7.00 to 8.00.

On to `CCN1CCC[C@@H](Nc2nnc(-c3ccc(OC)cc3OC(F)(F)F)c3cccn23)C1` [Compound 59], for which the pIC50 is > 9.00.

As for `Cc1cc2c(-c3ccc(C(F)(F)F)cc3C(F)(F)F)nnc(N[C@@H]3CCCN(C)C3)n2c1` [Compound 109, 1-[2,4-bis(trifluoromethyl)phenyl]-7-methyl-N-[(3R)-1-methylpiperidin-3-yl]pyrrolo[1,2-d][1,2,4]triazin-4-amine], the pIC50 was 8.00 to 9.00.

For `Cc1cc2c(-c3ccc(C(F)(F)F)cc3C(F)(F)F)nnc(NC3CCNC3=O)n2c1` (centres unmarked) [Compound 161, 3-({1-[2,4-bis(trifluoromethyl)phenyl]-7-methylpyrrolo[1,2-d][1,2,4]triazin-4-yl}amino)pyrrolidin-2-one], the pIC50 is 8.00 to 9.00.

`COc1ccc(-c2nnc(N[C@H]3C[C@@](C)(CO)C3)n3cncc23)c(CC(F)(F)F)c1` [Compound 341, [(1s,3s)-3-({1-[4-methoxy-2-(2,2,2-trifluoroethyl)phenyl]imidazo[1,5-d][1,2,4]triazin-4-yl}amino)-1-methylcyclobutyl]methanol]: the pIC50 was 7.00 to 8.00.

In the case of `Cc1ccc(-c2nnc(N[C@@H]3CCCC[C@H]3O)n3cccc23)c(OC(F)F)c1` [Compound 136, (1R,2R)-2-({1-[2-(difluoromethoxy)-4-methylphenyl]pyrrolo[1,2-d][1,2,4]triazin-4-yl}amino)cyclohexan-1-ol], the pIC50 is 8.00 to 9.00.

With `CN1C[C@H](F)C[C@@H](Nc2nnc(-c3ccc(OC(F)F)cc3OC(F)(F)F)c3cccn23)C1` [Compound 87, 1-[4-(difluoromethoxy)-2-(trifluoromethoxy)phenyl]-N-[(3R,5R)-5-fluoro-1-methylpiperidin-3-yl]pyrrolo[1,2-d][1,2,4]triazin-4-amine], the pIC50 is 8.00 to 9.00.

In the case of `COc1ccc(-c2nnc(N[C@@H]3CCC[C@H](O)C3)n3cncc23)c(OC(F)(F)F)c1` [Compound 222, (1S,3R)-3-({1-[4-methoxy-2-(trifluoromethoxy)phenyl]imidazo[1,5-d][1,2,4]triazin-4-yl}amino)cyclohexan-1-ol], the pIC50 was 8.00 to 9.00.

Take `COc1ccc(-c2nnc(N[C@H]3C[C@@](C)(O)C3)n3cncc23)c(CC(F)(F)F)c1` [Compound 236, (1s,3s)-3-({1-[4-methoxy-2-(2,2,2-trifluoroethyl)phenyl]imidazo[1,5-d][1,2,4]triazin-4-yl}amino)-1-methylcyclobutan-1-ol]: the pIC50 is 8.00 to 9.00.

As to `CC(Nc1nnc(-c2ccc(C(F)(F)F)cc2CC(F)(F)F)c2cccn12)c1cccc(O)c1` (centres unmarked) [Compound 96, 3-[1-({1-[2-(2,2,2-trifluoroethyl)-4-(trifluoromethyl)phenyl]pyrrolo[1,2-d][1,2,4]triazin-4-yl}amino)ethyl]phenol], the pIC50 was 8.00 to 9.00.

Take `COc1ccc(-c2nnc(NC3CCNC3=O)n3ccc(F)c23)c(C(F)(F)F)c1` (centres unmarked) [Compound 116, 3-({8-fluoro-1-[4-methoxy-2-(trifluoromethyl)phenyl]pyrrolo[1,2-d][1,2,4]triazin-4-yl}amino)pyrrolidin-2-one]: the pIC50 is 7.00 to 8.00.

For orientation: pIC50 means −log10 of the IC50, conventionally taken in molar units.
